pIC50, pKi: −log10 of the molar value.
What was measured:
[1] = system: HCT116 colorectal cancer cells; test: Cisplatin sensitization assay, 96 h cell viability (MTS); type: cell-based; details: concentration of compound required to reduce the IC50 of Cisplatin alone by at least 3-fold; HCT116, 96 h MTS
Experimental: Compounds can be screened for their ability to sensitize HCT116 colorectal cancer cells to Cisplatin using a 96 h cell viability (MTS) assay. […] Compounds and Cisplatin are then both added simultaneously to the cell media in 2-fold serial dilutions from a top final concentration of 10 μM as a full matrix of concentrations in a final cell volume of 200 μl, and the cells are then incubated at 37° C. in 5% CO2. After 96 h, 40 μl of MTS reagent (Promega G358a) is added to each well and the cells are incubated for 1 h at 37° C. in 5% CO2.

[2] = system: HCT116 colorectal cancer cells; test: Single agent HCT116 activity, 96 h cell viability (MTS) assay; type: cell-based; details: Homo sapiens, HCT-116, 96 h MTS viability, read-out: Single agent HT116 IC50
Experimental: Compounds can be screened for single agent activity against HCT116 colorectal cancer cells using a 96 h cell viability (MTS) assay. HCT116 are plated at 470 cells per well in 96-well polystyrene plates (Costar 3596) in 150 μl of McCoy's 5A media (Sigma M8403) supplemented with 10% foetal bovine serum (JRH Biosciences 12003), Penicillin/Streptomycin solution diluted 1:100 (Sigma P7539), and 2 mM L-glumtamine (Sigma G7513), and allowed to adhere overnight at 37° C. in 5% CO2. Compounds are then added to the cell media in 2-fold serial dilutions from a top final concentration of 10 μM as a full matrix of concentrations in a final cell volume of 200 μl, and the cells are then incubated at 37° C. in 5% CO2. After 96 h, 40 μl of MTS reagent (Promega G358a) is added to each well and the cells are incubated for 1 h at 37° C. in 5% CO2. Finally, absorbance is measured at 490 nm using a SpectraMax Plus 384 reader (Molecular Devices) and IC50 values can be calculated.

full-length ATR = full-length ATR (Homo sapiens (Human), UniProt Q13535); test: ATR inhibition assay (radioactive-phosphate incorporation); type: biochemical
Chain of full-length ATR (Q13535 whole entry): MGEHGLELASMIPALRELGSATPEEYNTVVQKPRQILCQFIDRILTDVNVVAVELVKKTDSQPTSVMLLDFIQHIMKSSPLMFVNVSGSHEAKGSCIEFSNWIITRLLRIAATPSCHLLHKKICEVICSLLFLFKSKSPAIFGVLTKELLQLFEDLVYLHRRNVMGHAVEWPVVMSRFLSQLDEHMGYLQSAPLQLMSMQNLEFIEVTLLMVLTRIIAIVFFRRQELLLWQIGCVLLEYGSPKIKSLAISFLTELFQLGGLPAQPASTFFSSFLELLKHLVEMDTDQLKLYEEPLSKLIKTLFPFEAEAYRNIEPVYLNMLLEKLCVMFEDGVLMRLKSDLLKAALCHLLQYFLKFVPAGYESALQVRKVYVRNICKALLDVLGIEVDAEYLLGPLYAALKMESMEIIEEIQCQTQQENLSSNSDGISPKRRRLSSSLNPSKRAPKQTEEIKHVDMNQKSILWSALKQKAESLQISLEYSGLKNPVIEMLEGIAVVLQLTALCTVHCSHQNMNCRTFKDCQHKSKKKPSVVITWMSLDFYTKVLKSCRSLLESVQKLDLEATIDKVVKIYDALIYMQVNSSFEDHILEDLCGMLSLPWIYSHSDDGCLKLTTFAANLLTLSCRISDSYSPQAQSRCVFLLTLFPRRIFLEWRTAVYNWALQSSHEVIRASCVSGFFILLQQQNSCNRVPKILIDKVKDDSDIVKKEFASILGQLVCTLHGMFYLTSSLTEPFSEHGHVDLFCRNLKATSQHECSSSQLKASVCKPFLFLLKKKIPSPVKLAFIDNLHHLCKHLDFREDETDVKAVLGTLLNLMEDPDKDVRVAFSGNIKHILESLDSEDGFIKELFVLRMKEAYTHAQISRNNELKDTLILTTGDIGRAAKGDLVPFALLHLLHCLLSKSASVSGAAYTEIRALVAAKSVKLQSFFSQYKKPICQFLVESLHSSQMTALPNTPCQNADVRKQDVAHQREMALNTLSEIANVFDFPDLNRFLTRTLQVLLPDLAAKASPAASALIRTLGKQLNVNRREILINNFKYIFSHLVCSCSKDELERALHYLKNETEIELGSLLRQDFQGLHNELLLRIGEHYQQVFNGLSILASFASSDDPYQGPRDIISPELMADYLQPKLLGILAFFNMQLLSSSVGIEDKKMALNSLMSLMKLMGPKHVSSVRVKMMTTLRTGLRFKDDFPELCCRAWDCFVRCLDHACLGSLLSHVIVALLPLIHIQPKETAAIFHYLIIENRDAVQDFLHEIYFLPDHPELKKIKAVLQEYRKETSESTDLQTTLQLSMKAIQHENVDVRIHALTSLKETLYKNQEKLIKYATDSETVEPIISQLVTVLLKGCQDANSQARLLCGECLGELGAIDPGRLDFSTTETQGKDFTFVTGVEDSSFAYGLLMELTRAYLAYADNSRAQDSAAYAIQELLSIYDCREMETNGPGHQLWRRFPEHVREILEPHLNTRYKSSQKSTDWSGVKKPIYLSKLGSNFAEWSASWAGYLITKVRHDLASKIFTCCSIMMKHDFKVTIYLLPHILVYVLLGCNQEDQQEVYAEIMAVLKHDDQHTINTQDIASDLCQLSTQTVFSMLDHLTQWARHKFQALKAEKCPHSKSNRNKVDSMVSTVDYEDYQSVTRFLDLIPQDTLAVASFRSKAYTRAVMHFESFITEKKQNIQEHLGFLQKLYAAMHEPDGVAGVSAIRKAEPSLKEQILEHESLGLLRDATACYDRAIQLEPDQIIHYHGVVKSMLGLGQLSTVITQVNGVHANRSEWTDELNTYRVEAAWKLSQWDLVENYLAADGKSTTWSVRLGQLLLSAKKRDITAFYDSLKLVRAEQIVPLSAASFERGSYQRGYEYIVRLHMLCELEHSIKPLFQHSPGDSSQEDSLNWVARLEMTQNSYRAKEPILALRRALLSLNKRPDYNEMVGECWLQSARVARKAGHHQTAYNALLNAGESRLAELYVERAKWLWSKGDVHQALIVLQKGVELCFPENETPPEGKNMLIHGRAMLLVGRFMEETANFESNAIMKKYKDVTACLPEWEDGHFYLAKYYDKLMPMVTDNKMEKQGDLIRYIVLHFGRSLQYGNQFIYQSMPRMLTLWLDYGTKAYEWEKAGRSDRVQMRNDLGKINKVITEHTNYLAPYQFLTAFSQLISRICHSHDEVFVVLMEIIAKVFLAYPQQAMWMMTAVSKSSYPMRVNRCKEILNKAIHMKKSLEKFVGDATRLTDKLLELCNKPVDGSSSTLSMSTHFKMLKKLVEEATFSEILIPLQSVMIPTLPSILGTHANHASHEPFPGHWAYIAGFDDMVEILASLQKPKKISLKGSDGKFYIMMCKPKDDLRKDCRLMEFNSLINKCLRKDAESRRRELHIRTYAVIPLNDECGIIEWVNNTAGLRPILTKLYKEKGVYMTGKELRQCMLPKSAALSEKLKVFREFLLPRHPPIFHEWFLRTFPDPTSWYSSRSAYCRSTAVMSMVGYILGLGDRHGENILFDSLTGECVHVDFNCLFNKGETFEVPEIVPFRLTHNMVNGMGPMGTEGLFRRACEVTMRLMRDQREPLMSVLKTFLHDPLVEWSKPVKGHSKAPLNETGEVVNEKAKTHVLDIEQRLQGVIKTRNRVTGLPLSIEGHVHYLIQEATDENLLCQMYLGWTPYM
Experimental: Compounds can be screened for their ability to inhibit ATR kinase using a radioactive-phosphate incorporation assay. Assays are carried out in a mixture of 50 mM Tris/HCl (pH 7.5), 10 mM MgCl2 and 1 mM DTT. Final substrate concentrations are 10 μM [γ-33P]ATP (3 mCi 33P ATP/mmol ATP, Perkin Elmer) and 800 μM target peptide ([sequence]).
Assays are carried out at 25° C. in the presence of 5 nM full-length ATR. An assay stock buffer solution is prepared containing all of the reagents listed above, with the exception of ATP and the test compound of interest. […] The plate is pre-incubated for 10 minutes at 25° C. and the reaction initiated by addition of 15 μL [γ-33P]ATP (final concentration 10 μM).
The reaction is stopped after 24 hours by the addition of 30 μL 0.1M phosphoric acid containing 2 mM ATP. A multiscreen phosphocellulose filter 96-well plate (Millipore, Cat no. MAPHNOB50) is pretreated with 100 μL 0.2M phosphoric acid prior to the addition of 45 μL of the stopped assay mixture. […]
After removing mean background values for all of the data points, Ki(app) data are calculated from non-linear regression analysis of the initial rate data using the Prism software package (GraphPad Prism version 3.0cx for Macintosh, GraphPad Software, San Diego Calif., USA).

pIC50 [2] | Compound | Cisplatin sensitization [1] | pKi (full-length ATR)
7.21 | [2H]C([2H])(NC)c1ccc(-c2cc(-c3nc(-c4ccc(S(=O)(=O)C(C)C)cc4)cnc3N)on2)cc1 [II-1, 3-[3-[4-[dideuterio(methylamino)methyl]phenyl]isoxazol-5-yl]-5-(4-isopropylsulfonylphenyl)pyrazin-2-amine] | 39 nM | 
7.18 | [2H]C([2H])([2H])NCc1ccc(-c2cc(-c3nc(-c4ccc(S(=O)(=O)C(C)C)cc4)cnc3N)on2)cc1 [II-3, 5-(4-isopropylsulfonylphenyl)-3-[3-[4-[(trideuteriomethylamino)methyl]phenyl]isoxazol-5-yl]pyrazin-2-amine] | 39 nM | 

More lines, now with the values behind:

Compound | pIC50 [2] | Cisplatin sensitization [1] | pKi (full-length ATR)
CC(C)(C#N)c1cc(-c2cnc(N)c(-c3cc(-c4ccc(CNC5CCOCC5)cc4)no3)n2)ccn1 [Compound I-1, 2-(4-(5-amino-6-(3-(4-((tetrahydro-2H-pyran-4-ylamino)methyl)phenyl)isoxazol-5-yl)pyrazin-2-yl)pyridin-2-yl)-2-methylpropanenitrile] |  |  | > 9.00
5-(4-(tert-butylsulfonyl)phenyl)-3-(3-(4-((methylamino)methyl)phenyl)isoxazol-5-yl)pyrazin-2-amine [Compound I-2] |  |  | > 9.00
[2H]C([2H])([2H])NC([2H])([2H])c1ccc(-c2cc(-c3nc(-c4ccc(S(=O)(=O)C(C)C)cc4)cnc3N)on2)cc1 [II-2, 3-[3-[4-[dideuterio-(trideuteriomethylamino)methyl]phenyl]isoxazol-5-yl]-5-(4-isopropylsulfonylphenyl)pyrazin-2-amine] | 7.34 | 29 nM | 

Source: US10208027B2, “Processes for preparing ATR inhibitors” (Vertex Pharmaceuticals Incorporated, priority 2011, dated 2019)
